For twelve molecules, IC50 results are on record in patent US9512107B2, “Therapeutically active compositions and their methods of use” (Agios Pharmaceuticals, Inc., priority 2012, dated 2016).

The target of one test is T1, IDH2 R172K (Homo sapiens, UniProt P48735, R172K).
T1 sequence (P48735 40-452 R172K): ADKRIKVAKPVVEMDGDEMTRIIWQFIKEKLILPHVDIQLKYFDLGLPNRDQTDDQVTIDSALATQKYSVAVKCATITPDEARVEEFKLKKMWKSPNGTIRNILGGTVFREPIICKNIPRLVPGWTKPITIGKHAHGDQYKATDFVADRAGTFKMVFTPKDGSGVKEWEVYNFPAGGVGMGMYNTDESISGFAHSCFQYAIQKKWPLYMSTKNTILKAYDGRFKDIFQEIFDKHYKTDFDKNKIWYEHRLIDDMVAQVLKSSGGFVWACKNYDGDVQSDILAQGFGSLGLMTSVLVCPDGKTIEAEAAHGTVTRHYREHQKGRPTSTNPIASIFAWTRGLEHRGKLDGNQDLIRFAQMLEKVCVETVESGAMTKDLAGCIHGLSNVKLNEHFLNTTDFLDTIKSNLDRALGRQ
Description: IDH2 R172K enzymatic assay (NADPH cofactor depletion, diaphorase/resazurin readout). The following applies: read-out: Enz R172K. It counts as biochemical. Put shortly: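 Cofactor depletion format: enzyme + compound 1 h RT; add substrate mix (50 μM NADPH, 6.3 mM α-KG); react 1 h RT; quench with stop mix (36 μg/ml diaphorase, 60 μM resazurin); read resorufin fluorescence as residual NADPH.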
A general note: Resazurin is reduced to fluorescent resorufin, in cell work by metabolically active cells.

Another test addresses T2, IDH2 R140Q (Homo sapiens, UniProt P48735, R140Q).
T2 sequence (P48735 40-452 R140Q): T1 sequence (P48735 40-452 R172K) with R101Q, K133R
The test can be described thus: IDH2 R140Q enzymatic assay (cofactor depletion, similar format). It counts as biochemical. The following applies: read-out: Enz R140Q.

In test [1] the test system is U87MG pLVX-IDH2 R140Q-neo cells. Description: U87MG pLVX-IDH2 R140Q-neo cell based assay, 2-HG in media by LC-MS at 48 hours. The following applies: Homo sapiens, U-87 MG. Put shortly: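 2-HG secreted into the medium was measured by LC-MS after 48 h of compound treatment (0.2% DMSO final) of U87MG pLVX-IDH2 R140Q-neo cells in DMEM/10% FBS. The same wells were assayed at 72 h by CellTiter-Glo luminescence for effects on growth.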

Changes are numbered by the printed parent chain. Some results are limits rather than exact numbers.

For the molecule `COc1cccc(-c2nc(Nc3ccccc3)nc(NC(C)C)n2)c1` [Compound 115], the IC50 on IDH2 R172K was 100 to 1000 nM; on IDH2 R140Q, below 100 nM; in test [1], 100 to 1000 nM.
Consider `CC(C)Nc1nc(Nc2ccnc(CC#N)c2)nc(-c2cccc(C(F)(F)F)n2)n1` [Compound 672, {4-[4-Isopropylamino-6-(6-trifluoromethyl-pyridin-2-yl)-[1,3,5]triazin-2-ylamino]-pyridin-2-yl}-acetonitrile], for which the results for the IC50 (at IDH2 R172K; at IDH2 R140Q; in test [1]) were 100 to 1000 nM, 100 to 1000 nM and below 100 nM, respectively.
With `CC(C)Nc1nc(NC(=O)Cc2ccccc2)nc(-c2ccccc2)n1` [Compound 170], the IC50 at IDH2 R172K is 100 to 1000 nM; at IDH2 R140Q, 100 to 1000 nM; in test [1], 1000 to 10000 nM.
On to `CC(C)Nc1nc(Nc2ccnc(C(F)F)c2)nc(-c2cccc(C(F)(F)F)n2)n1` [Compound 551, N-(2-Difluoromethyl-pyridin-4-yl)-N′-isopropyl-6-(6-trifluoromethyl-pyridin-2-yl)-[1,3,5]triazine-2,4-diamine], for which the figures for the IC50 (on IDH2 R172K; on IDH2 R140Q; in test [1]) were below 100 nM, 100 to 1000 nM and below 100 nM, respectively.
Consider `FC(F)(F)c1cc(Nc2nc(NC3C4COCC43)nc(-c3cccc(C(F)(F)F)n3)n2)ccn1` (stereo not drawn) [Compound 504, N-(3-Oxa-bicyclo[3.1.0]hex-6-yl)-N′-(2-trifluoromethyl-pyridin-4-yl)-6-(6-trifluoromethyl-pyridin-2-yl)-[1,3,5]triazine-2,4-diamine], for which the IC50 at IDH2 R172K is below 100 nM; at IDH2 R140Q, 100 to 1000 nM; in test [1], below 100 nM.
As to `CC(C)(CO)Nc1nc(Nc2ccnc(C(F)(F)F)c2)nc(-c2cccc(C(F)(F)F)n2)n1` [Compound 562, 2-Methyl-2-[4-(6-trifluoromethyl-pyridin-2-yl)-6-(2-trifluoromethyl-pyridin-4-ylamino)-[1,3,5]triazin-2-ylamino]-propan-1-ol], the IC50 was below 100 nM at IDH2 R172K, 100 to 1000 nM at IDH2 R140Q and below 100 nM in test [1].
In the case of `CC(C)Nc1nc(Nc2ccnc(CF)c2)nc(-c2cccc(C(F)(F)F)n2)n1` [Compound 676, N-(2-Fluoromethyl-pyridin-4-yl)-N′-isopropyl-6-(6-trifluoromethyl-pyridin-2-yl)-[1,3,5]triazine-2,4-diamine], the IC50 on IDH2 R172K is below 100 nM; on IDH2 R140Q, 100 to 1000 nM; in test [1], below 100 nM.
Regarding `CC(C)(C)OC(=O)N1CCC(Nc2nc(Nc3ccccc3)nc(-c3ccccc3)n2)CC1` [Compound 667, 4-(4-Phenyl-6-phenylamino-[1,3,5]triazin-2-ylamino)-piperidine-1-carboxylic acid tert-butyl ester], the IC50 (on IDH2 R172K; at IDH2 R140Q; in test [1]) was 100 to 1000 nM in each case.
As for `CC(C)Nc1nc(Nc2cccc(Cl)c2)nc(-c2ccccc2)n1` [Compound 149], the IC50 (on IDH2 R172K; on IDH2 R140Q; in test [1]) was below 100 nM throughout.
Turning to `CC(F)(F)c1cccc(-c2nc(NCC3CC3)nc(Nc3cccc(S(C)(=O)=O)c3)n2)n1` [Compound 611, N2-(cyclopropylmethyl)-6-(6-(1,1-difluoroethyl)pyridin-2-yl)-N4-(3-(methylsulfonyl)phenyl)-1,3,5-triazine-2,4-diamine], the IC50 at IDH2 R172K is 100 to 1000 nM; on IDH2 R140Q, 100 to 1000 nM; in test [1], below 100 nM.
Take `c1ccc(-c2nc(NCC3CC3)nc(Nc3ccncc3)n2)cc1` [Compound 216, N^2-(cyclopropylmethyl)-6-phenyl-N^4-(pyridin-4-yl)-1,3,5-triazine-2,4-diamine]: the IC50 at IDH2 R172K was 100 to 1000 nM; at IDH2 R140Q, below 100 nM; in test [1], 100 to 1000 nM.
`CC(C)Nc1nc(Nc2ccnc(C3(C#N)CC3)c2)nc(-c2cccc(C(F)(F)F)n2)n1` [Compound 669, 1-{4-[4-Isopropylamino-6-(6-trifluoromethyl-pyridin-2-yl)-[1,3,5]triazin-2-ylamino]-pyridin-2-yl}-cyclopropanecarbonitrile]: the IC50 at IDH2 R172K is below 100 nM; on IDH2 R140Q it was 100 to 1000 nM; in test [1] it was below 100 nM.
